Test results as given in US20040096851A1, “ABCA1 PEST domain-related compositions and methods” (priority 2002, published 2004).

Experiments:
ABCA1 protein [1] = assay: ABCA1 protein level in mouse peritoneal macrophages (Western); assay type: cell-based; settings: cultured cells, short-term incubations, data not shown
ABCA1 protein [2] = assay: as above; assay type: cell-based; settings: for ABCA1 protein level, effect in words: mouse peritoneal macrophages, 3 hours, apoA-I 10 μg/ml, HDL2 50 μg protein/ml, MβCD 1 mM 5 min, apigenin 40 μM
Protocol: Cellular lipid efflux assays, apoA-I cell association, and chemical cross-linking: The assays were carried out as in (14). Generally, 293 cells were labeled by culturing overnight in media containing either [^3H]cholesterol, for cholesterol efflux, or [^3H]choline, for phospholipid efflux. The next day, cells were washed with fresh media before or after treatment as indicated, and then apoA-I was added as acceptor and incubated for the indicated period before the media and cells were collected for analysis. Mouse peritoneal macrophage cells were isolated from male mice by peritoneal lavage with PBS 3 days after intraperitoneal injection with 1 ml of 3.85% thioglycollate. The cells were labeled with […] [^3H]cholesterol overnight in DMEM and 0.2% BSA supplemented with 50 μg/ml acetylated LDL plus LXR/RXR ligands 22(R)-hydroxycholesterol and 9-cis retinoic acid (both 10 μM). After labeling, cells were washed and efflux was carried out with 10 μg/ml apoA-I for 3 hours. Then, cells and medium were collected for analysis. Cholesterol efflux was expressed as the percentage of the radioactivity released from the cells into the medium, relative to the total radioactivity in cells plus medium. For apoA-I cell association, cells were incubated with 0.2 μg/ml [^125 I]apoA-I in 0.2% BSA and DMEM for 1 hour at 37° C. After being washed three times with fresh media, cells were lysed with 0.1% SDS and 0.1N NaOH lysis buffer, and radioactivity was determined by a gamma counter.
(§1) Immunoprecipitation and immunoblot analysis of ABCA1: For immunoblot analysis of ABCA1, ABCA1-FLAG, and ABCA1delPEST-FLAG, transfected HEK293 cells, peritoneal macrophages, or primary hepatocytes were washed and scraped in PBS and lysed in RIPA buffer (10 mM Tris-HCl [pH 7.3], 1 mM MgCl2, 1.0% Nonidet P-40, 0.5% sodium deoxycholate, and 5 mM EDTA in the presence of protease inhibitors as follows: 0.5 μg/ml leupeptin, 1 μg/ml aprotinin, and 1 μg/ml pepstatin A) (Roche Molecular Biochemicals, Indianapolis, Ind., USA). Postnuclear supernatants containing the indicated amounts of protein were subjected to Western analysis using an anti-ABCA1 antiserum or anti-FLAG M2 antibody and chemiluminescence detection. The relative intensities of the bands were determined by densitometry. For cell surface ABCA1 analysis, cells were first biotinylated with 0.5 mg/ml EZ-Link Sulfo-NHS-SS-Biotin (Pierce Chemical Co., Rockford, Ill., USA) at 4° C. for 30 minutes. Then cells were lysed with RIPA buffer at 4° C. After centrifugation, the supernatant of cell lysates was incubated with anti-FLAG agarose beads overnight at 4° C. Following centrifugation and washing, the collected agarose beads were subjected to SDS-PAGE sample buffer with 100 mM 2-mercaptoethanol. The total or […] ABCA1 was detected by Western blot using either anti-FLAG antibody or streptavidin-horseradish peroxidase.

ABCA1 protein [3] = assay: ABCA1 protein level in primary mouse hepatocytes (Western); assay type: cell-based; settings: apoA-I 10 μg/ml 3 hours
Protocol: as §1, with “peroxidase. […]” for “peroxidase.”

ABCA1 protein [4] = assay: ABCA1 protein turnover and level in transiently transfected 293 cells (metabolic labeling, Western, cell surface biotinylation); assay type: cell-based, human
Text: Plasmid constructs and cell transfection: ABCA1-FLAG was constructed as described (18). ABCA1delPEST was based on ABCA1-FLAG. Using PCR, ABCA1delPEST was constructed by deleting a nucleotide sequence that encodes mouse ABCA1 amino acids 1283-1306 and was confirmed by sequencing. HEK293 cells, in 12- or 24-well collagen-coated plates, were transiently transfected with various plasmid constructs at indicated DNA concentrations with Lipofectamine 2000 (Invitrogen Corp., San Diego, Calif., USA) at 37° C. overnight (20 hours). A construct expressing green fluorescence protein (GFP) was routinely used to visually monitor transfection efficiency (i.e., the percentage of cells expressing GFP). The transfection efficiency of 293 cells was in the range of 50-80% of cells. […] In addition to performing multiple replicates within each experiment, all experiments were repeated on multiple separate occasions to confirm reproducibility of results.
as §1

ABCA1 [5] = target: T1, ABCA1 (Mus musculus, UniProt P41233); assay: Apolipoprotein A-I infusion in mice, ABCA1 in liver and peritoneal macrophages; assay type: in vivo; design: from tissue; host or cells: mouse liver and peritoneal macrophages
T1 sequence (P41233 whole entry, the tested form may be a part): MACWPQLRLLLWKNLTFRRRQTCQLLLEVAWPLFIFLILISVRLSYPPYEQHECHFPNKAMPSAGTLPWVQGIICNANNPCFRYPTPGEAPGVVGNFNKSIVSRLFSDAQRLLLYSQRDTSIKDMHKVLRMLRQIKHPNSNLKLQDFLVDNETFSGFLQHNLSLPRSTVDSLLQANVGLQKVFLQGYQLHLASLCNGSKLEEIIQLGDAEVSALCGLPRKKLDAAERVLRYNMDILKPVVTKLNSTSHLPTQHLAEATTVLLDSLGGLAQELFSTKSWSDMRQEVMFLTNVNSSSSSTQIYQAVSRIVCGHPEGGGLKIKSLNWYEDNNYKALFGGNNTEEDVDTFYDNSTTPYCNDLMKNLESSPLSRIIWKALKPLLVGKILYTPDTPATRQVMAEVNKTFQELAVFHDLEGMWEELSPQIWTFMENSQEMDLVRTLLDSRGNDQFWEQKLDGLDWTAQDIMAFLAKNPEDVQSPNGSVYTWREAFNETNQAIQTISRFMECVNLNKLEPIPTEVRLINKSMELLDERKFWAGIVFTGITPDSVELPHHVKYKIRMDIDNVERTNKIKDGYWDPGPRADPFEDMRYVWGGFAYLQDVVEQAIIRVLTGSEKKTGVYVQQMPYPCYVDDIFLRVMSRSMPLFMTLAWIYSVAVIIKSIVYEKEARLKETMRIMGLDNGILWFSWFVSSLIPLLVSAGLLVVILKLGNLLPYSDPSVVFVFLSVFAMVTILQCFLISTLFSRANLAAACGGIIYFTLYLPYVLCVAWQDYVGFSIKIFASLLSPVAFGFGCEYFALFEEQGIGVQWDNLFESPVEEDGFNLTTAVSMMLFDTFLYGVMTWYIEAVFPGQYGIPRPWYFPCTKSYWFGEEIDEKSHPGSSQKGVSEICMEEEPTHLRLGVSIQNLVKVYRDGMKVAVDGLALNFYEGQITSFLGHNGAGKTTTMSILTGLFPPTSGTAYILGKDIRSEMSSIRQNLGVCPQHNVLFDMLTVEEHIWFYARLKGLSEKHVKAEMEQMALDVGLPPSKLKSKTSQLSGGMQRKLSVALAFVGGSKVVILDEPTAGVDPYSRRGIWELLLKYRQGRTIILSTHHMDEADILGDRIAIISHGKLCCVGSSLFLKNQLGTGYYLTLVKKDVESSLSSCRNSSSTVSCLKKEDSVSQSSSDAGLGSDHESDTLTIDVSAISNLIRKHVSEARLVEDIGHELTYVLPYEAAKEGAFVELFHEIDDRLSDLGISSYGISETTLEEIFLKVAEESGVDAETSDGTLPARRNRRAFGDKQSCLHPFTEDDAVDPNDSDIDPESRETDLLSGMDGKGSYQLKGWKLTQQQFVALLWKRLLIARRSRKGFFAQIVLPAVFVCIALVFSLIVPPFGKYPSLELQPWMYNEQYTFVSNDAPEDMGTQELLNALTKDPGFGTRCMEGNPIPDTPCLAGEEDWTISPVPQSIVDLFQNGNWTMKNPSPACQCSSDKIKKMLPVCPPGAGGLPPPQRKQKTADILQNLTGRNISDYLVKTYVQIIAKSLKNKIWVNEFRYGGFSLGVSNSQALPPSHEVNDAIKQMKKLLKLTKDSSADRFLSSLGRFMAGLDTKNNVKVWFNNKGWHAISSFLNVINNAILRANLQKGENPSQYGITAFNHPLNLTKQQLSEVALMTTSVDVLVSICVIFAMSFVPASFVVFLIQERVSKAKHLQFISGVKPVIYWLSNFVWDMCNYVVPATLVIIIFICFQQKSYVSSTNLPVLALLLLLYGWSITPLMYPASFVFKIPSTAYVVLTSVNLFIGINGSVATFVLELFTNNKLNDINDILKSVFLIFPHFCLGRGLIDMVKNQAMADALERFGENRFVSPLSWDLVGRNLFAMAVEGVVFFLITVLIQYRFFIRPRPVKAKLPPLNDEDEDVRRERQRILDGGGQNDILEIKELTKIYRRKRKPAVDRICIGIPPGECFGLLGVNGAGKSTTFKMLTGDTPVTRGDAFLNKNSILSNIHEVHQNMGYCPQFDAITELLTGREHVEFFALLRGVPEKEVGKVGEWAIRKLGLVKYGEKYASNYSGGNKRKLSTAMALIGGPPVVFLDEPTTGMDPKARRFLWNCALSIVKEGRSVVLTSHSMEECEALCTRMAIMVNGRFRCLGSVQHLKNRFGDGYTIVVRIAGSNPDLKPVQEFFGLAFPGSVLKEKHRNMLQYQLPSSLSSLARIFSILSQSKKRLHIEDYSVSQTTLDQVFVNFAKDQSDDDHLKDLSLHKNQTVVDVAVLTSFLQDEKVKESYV
Protocol: […] Mice were anesthetized intraperitoneally with 0.1 ml/30 g body weight of a solution containing 100 mg/ml ketamine and 30 mg/ml xylazine. ApoA-I (20 mg/kg body weight) or BSA as control was administered via femoral vein as a bolus injection. Four hours after injection, animals were euthanized and the liver was dissected out for analysis.

calpain protease = assay: Degradation of a fluorescent calpain protease substrate in cells; assay type: cell-based; settings: data not shown
ABCA1 phosphorylation = assay: Phosphorylation of ABCA1 in cells; assay type: cell-based
ABCA1 [6] = target: T1, ABCA1; assay: Calpain-catalyzed proteolysis of metabolically labeled ABCA1 in digitonin-permeabilized 293 cells; assay type: cell-based; design: expressed in transfected cells; host or cells: 293 cells, digitonin-permeabilized
Protocol: (§2) Calpain-catalyzed proteolysis of metabolically labeled ABCA1: Transiently transfected 293 cells were pulse-labeled by [^35S]methionine (0.5 mCi/ml) in 0.2% BSA and DMEM for 2 hours. Cells were washed three times with fresh media and placed on ice for 10 minutes. Then cells were permeabilized by addition of 80 μg/ml digitonin in DMEM and incubated on ice for 15 minutes. Next, the cells were washed twice with fresh DMEM, and then purified μ-calpain in DMEM plus 2 mM CaCl2 was added at the indicated concentration and incubated for 20 minutes at room temperature. Then cells were lysed by addition of 1 ml RIPA buffer with 40 μg/ml calpeptin. FLAG-tagged ABCA1 was immunoprecipitated by anti-FLAG agarose beads and subjected to quantitative analysis by PhosphorImager.

ABCA1 [7] = settings: macrophages loaded with acetyl-LDL and cholesterol ester; cited from earlier work
ABCA1 [8] = target: T2, ABCA1 (Mus musculus, UniProt P41233, DEL1283-1306); assay: Calpain-catalyzed proteolysis of metabolically labeled ABCA1 in digitonin-permeabilized 293 cells; assay type: cell-based; settings: permeabilized 293 cells, purified μ-calpain
T2 construct: expressed in transfected cells; host or cells: 293 cells, digitonin-permeabilized
T2 sequence (P41233 with tags, fused parts or gaps DEL1283-1306): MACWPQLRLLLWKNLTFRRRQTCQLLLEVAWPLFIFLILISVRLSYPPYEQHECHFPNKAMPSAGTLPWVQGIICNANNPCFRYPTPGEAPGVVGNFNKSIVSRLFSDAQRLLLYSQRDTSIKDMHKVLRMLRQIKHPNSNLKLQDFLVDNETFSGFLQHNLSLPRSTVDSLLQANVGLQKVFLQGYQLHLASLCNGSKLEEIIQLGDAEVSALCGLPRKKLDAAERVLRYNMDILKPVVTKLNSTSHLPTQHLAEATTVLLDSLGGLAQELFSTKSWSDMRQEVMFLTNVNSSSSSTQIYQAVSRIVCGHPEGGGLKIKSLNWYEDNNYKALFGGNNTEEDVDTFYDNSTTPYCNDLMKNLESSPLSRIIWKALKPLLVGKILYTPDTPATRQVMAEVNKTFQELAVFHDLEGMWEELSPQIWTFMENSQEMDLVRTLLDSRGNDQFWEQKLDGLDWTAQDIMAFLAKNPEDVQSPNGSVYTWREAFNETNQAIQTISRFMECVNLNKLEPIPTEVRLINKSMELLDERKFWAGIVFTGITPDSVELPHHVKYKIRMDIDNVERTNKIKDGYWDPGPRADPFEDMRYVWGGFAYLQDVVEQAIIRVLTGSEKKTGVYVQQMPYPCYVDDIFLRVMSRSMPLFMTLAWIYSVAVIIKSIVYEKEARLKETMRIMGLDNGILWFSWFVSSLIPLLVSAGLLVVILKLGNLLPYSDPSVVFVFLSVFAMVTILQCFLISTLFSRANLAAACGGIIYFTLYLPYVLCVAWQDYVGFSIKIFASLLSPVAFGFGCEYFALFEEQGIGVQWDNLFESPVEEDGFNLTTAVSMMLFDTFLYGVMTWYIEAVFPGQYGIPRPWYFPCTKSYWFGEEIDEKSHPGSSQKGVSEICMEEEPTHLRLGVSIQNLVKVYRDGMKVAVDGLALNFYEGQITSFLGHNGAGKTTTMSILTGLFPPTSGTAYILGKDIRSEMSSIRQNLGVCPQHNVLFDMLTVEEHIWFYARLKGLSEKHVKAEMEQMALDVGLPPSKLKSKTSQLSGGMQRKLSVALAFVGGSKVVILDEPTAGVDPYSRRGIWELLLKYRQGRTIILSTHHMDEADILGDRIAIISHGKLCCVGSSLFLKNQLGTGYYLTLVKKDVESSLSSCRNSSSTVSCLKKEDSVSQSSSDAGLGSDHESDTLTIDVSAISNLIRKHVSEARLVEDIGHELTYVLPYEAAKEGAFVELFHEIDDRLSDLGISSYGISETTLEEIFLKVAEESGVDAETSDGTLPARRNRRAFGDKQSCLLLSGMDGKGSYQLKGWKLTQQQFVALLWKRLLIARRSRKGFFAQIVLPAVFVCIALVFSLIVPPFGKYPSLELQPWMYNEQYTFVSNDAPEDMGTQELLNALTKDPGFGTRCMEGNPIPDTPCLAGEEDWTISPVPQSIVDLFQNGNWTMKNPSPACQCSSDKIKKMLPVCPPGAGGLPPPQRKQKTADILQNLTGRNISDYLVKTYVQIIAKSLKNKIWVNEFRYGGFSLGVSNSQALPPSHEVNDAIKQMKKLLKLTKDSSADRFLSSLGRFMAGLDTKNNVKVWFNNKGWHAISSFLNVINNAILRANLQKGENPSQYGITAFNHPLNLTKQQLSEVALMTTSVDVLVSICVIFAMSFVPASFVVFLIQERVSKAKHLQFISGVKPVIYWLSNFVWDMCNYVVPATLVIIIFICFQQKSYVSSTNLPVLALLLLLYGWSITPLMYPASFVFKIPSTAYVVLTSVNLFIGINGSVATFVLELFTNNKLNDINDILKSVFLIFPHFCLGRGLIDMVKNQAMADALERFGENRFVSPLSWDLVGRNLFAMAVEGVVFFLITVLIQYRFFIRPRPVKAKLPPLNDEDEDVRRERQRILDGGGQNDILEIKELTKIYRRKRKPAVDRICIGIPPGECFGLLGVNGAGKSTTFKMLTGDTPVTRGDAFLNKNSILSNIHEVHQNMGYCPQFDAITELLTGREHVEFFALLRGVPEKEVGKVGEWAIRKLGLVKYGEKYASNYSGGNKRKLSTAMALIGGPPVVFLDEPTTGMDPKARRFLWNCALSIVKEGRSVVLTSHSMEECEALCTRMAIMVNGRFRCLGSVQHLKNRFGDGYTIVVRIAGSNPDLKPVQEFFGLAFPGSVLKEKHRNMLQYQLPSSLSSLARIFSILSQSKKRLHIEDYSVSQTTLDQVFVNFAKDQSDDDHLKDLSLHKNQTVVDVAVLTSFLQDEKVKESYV
Protocol: as §2

[9] = time-course study of apoA-I infusion
[10] = 293 cells, apoA-I 10 μg/ml 3 hours
[11] = 293 cells, lactacystin 20 μM for 3 h

In the case of `CCCC[C@@H](C=O)NC(=O)[C@H](CC(C)C)NC(=O)OCc1ccccc1` [calpeptin], the “ABCA1 mRNA” value (ABCA1 protein [1]) is reported as “without any change”, the “ABCA1 protein level, effect in words” value (ABCA1 protein [2]) is reported as “increased” and the “ABCA1 protein level, effect in words” value (ABCA1 protein [3]) is reported as “increased”. For the same molecule, the “effect of calpeptin on ABCA1delPEST (PEST sequence deleted)” value (ABCA1 protein [4]; 293 cells, calpeptin 30 μg/ml for 3 hours) was “abolished”, the “mean increase in ABCA1 protein levels” value (ABCA1 protein [4]; 293 cells, calpeptin 30 μg/ml for 3 hours, p<0.001) was 3.84±0.32 fold and the “cell surface ABCA1, effect in words” value (ABCA1 protein [4]; calpeptin) was “marked increase”.

In the case of “apoA-I: Human apoA-I (BIODESIGN International), dialyzed against PBS; apolipoprotein ligand of ABCA1”, the “ABCA1 mRNA” value (ABCA1 protein [1]) is reported as “did not change”, the “ABCA1 protein in liver” value (ABCA1 [5]; mice, intravenous apoA-I 20 mg/kg, 4 hours, chow-fed) is reported as “induction” and the “ABCA1 protein in peritoneal macrophages” value (ABCA1 [5]; mice, intravenous apoA-I, 4 hours, high-fat, high-cholesterol diet for 7 days) is reported as “induction”. The “ABCA1 mRNA levels in liver” value (ABCA1 [5]; quantitative real-time PCR, data not shown) was “did not significantly alter”, the “ABCA1 protein levels after 24 hours” value (ABCA1 [5]; [9]) was “returned to base line” and the “time for which the increase in ABCA1 was sustained” value (ABCA1 [5]; [9]) was 8 h. For the same molecule, the “degradation of fluorescent calpain protease substrate” value (calpain protease) was “no change”, the “cell surface expression of ABCA1” value (ABCA1 protein [2]; macrophages, 3 hours apoA-I, biotinylation) was “increased” and the “ABCA1 protein level, effect in words” value (ABCA1 protein [2]) was “rapid, marked increase”. For the same molecule, the “effect on ABCA1 in primary macrophage cultures” value (ABCA1 protein [2]) was “stabilization”, the “phosphorylation of ABCA1” value (ABCA1 phosphorylation) was “time- and dose-dependent reduction” and the “ABCA1 protein level, effect in words” value (ABCA1 protein [3]) was “rapid, marked increase”. The “cellular expression levels of ABCA1delPEST” value (ABCA1 protein [4]; [10]) was “no effect”, the “protein levels of Walker motif mutant ABCA1” value (ABCA1 protein [4]; [10]) was “no increase” and the “ABCA1 protein level, effect in words” value (ABCA1 protein [4]; 293 cells, wild type ABCA1, apoA-I 10 μg/ml 3 hours) was “rapid, marked increase”. For the same molecule, the “level of ABCA1-W590S mutant” value (ABCA1 protein [4]; mutant binds apoA-I but does not mediate lipid efflux, data not shown) was “fails to increase”, the “ubiquitination levels of ABCA1” value (ABCA1 protein [4]; with or without proteasome inhibitors, data not shown) was “did not decrease” and the “ability of calpain to mediate proteolysis of ABCA1 after pre-treatment” value (ABCA1 [6]; apoA-I 10 μg/ml for 3 hours prior to permeabilization) was “abolished”.

With methy-β-cyclodextrin the “ABCA1 protein level, effect in words” value (ABCA1 protein [2]) was “no effect”.

In the case of `C=C1[C@@H](O)[C@@H]2O[C@]3(CC[C@H](/C=C/[C@@H](C)[C@@H]4CC(C)=C[C@@]5(O[C@H](C[C@@](C)(O)C(=O)O)CC[C@H]5O)O4)O3)CC[C@H]2O[C@@H]1[C@@H](O)C[C@H](C)[C@H]1O[C@@]2(CCCCO2)CC[C@H]1C` [okadaic acid], the “ability of apoA-I to increase ABCA1 protein levels” value (ABCA1 protein [2]; macrophages) is reported as “abolished”.

For `CC(=O)N[C@@H](CSC(=O)[C@]1([C@@H](O)C(C)C)NC(=O)[C@H](C)[C@@H]1O)C(=O)O` [lactacystin], the ABCA1 level (ABCA1 [7]) is given as “increased”, the ABCA1 level (ABCA1 protein [2]; acetyl-LDL-loaded, LXR/RXR-activated macrophages, data not shown) is given as “increased” and the “accumulation of total and cell surface ubiquitinated ABCA1” value (ABCA1 protein [4]; [11]) is given as “increase in the accumulation”. The “increase in total ABCA1 levels” value (ABCA1 protein [4]; [11]) was 2.2 fold and the “increase in cell surface ABCA1 levels” value (ABCA1 protein [4]; 293 cells, lactacystin, data not shown) was 2.2 fold.

For apoE: apoprotein ligand of ABCA1, the “effect on ABCA1 in primary macrophage cultures” value (ABCA1 protein [2]) was “stabilization”.

With `O=c1cc(-c2ccc(O)cc2)oc2cc(O)cc(O)c12` [apigenin, reference compound] the “ABCA1 protein level, effect in words” value (ABCA1 protein [2]) was “increase” and the “phosphorylation of ABCA1” value (ABCA1 phosphorylation) was “decrease”.

B1: μ-calpain: Purified μ-calpain protease from Calbiochem-Novabiochem (protein, UniProt P07384 2-714; P04632 1-268, looked up)
Calpain-1 catalytic subunit: SEEIITPVYCTGVSAQVQKQRARELGLGRHENAIKYLGQDYEQLRVRCLQSGTLFRDEAFPPVPQSLGYKDLGPNSSKTYGIKWKRPTELLSNPQFIVDGATRTDICQGALGDCWLLAAIASLTLNDTLLHRVVPHGQSFQNGYAGIFHFQLWQFGEWVDVVVDDLLPIKDGKLVFVHSAEGNEFWSALLEKAYAKVNGSYEALSGGSTSEGFEDFTGGVTEWYELRKAPSDLYQIILKALERGSLLGCSIDISSVLDMEAITFKKLVKGHAYSVTGAKQVNYRGQVVSLIRMRNPWGEVEWTGAWSDSSSEWNNVDPYERDQLRVKMEDGEFWMSFRDFMREFTRLEICNLTPDALKSRTIRKWNTTLYEGTWRRGSTAGGCRNYPATFWVNPQFKIRLDETDDPDDYGDRESGCSFVLALMQKHRRRERRFGRDMETIGFAVYEVPPELVGQPAVHLKRDFFLANASRARSEQFINLREVSTRFRLPPGEYVVVPSTFEPNKEGDFVLRFFSEKSAGTVELDDQIQANLPDEQVLSEEEIDENFKALFRQLAGEDMEISVKELRTILNRIISKHKDLRTKGFSLESCRSMVNLMDRDGNGKLGLVEFNILWNRIRNYLSIFRKFDLDKSGSMSAYEMRMAIESAGFKLNKKLYELIITRYSEPDLAVDFDNFVCCLVRLETMFRFFKTLDTDLDGVVTFDLFKWLQLTMFA
Calpain small subunit 1: MFLVNSFLKGGGGGGGGGGGLGGGLGNVLGGLISGAGGGGGGGGGGGGGGGGGGGGTAMRILGGVISAISEAAAQYNPEPPPPRTHYSNIEANESEEVRQFRRLFAQLAGDDMEVSATELMNILNKVVTRHPDLKTDGFGIDTCRSMVAVMDSDTTGKLGFEEFKYLWNNIKRWQAIYKQFDTDRSGTICSSELPGAFEAAGFHLNEHLYNMIIRRYSDESGNMDFDNFISCLVRLDAMFRAFKSLDKDGTGQIQVNIQEWLQLTMYS
In the case of B1, the “degradation of ABCA1delPEST” value (ABCA1 [8]) is reported as “no appreciable degradation” and the “degradation of wild type ABCA1” value (ABCA1 [6]; permeabilized 293 cells, purified μ-calpain) is reported as “efficient degradation”.
